Experimental data as given in patent US20240148744A1 (Celgene Corporation, priority 2021, published 2024).

System: Dirofilaria immitis
Assay: Heartworm screen Dirofilaria immitis (stage DiMF/DiL4 not specified in the tables)
Assay type: cell-based
Details: read-out: D. immitis Activity class

First: Cc1ccnc2c(NS(=O)(=O)c3ccc(C(F)(F)F)nc3)cccc12 [Compound 8, N-(4-methyl-quinolin-8-yl)-6-(trifluoro-methyl)pyr-idine-3-sulfon-amide]
Second: COc1ccnc2c(NS(=O)(=O)c3ccc(C(F)(F)F)nc3)cccc12 [Compound 10, N-(4-meth-oxyquinolin-8-yl)-6-(trifluoro-methyl)pyr-idine-3-sulfonamide]
The IC50 of the first is lower: 200 to 500 nM for the first, 500 to 5000 nM for the second.

System: Onchocerca gutturosa adult male worms
Assay: Onchocerca gutturosa in vitro screening model: adult worm motility score and MTT/formazan viability
Assay type: cell-based
Details: read-out: O. gutt Activity class

First: O=S(=O)(Nc1cccc2cccnc12)c1ccc(F)cn1 [Compound 247, 5-fluoro-N-(quinolin-8-yl)pyridine-2-sulfonamide]
Second: O=S(=O)(Nc1cccc2cccnc12)c1ccc(Cl)cn1 [Compound 259, 5-chloro-N-(quinolin-8-yl)pyridine-2-sulfonamide]
The IC50 of the first is lower: under 200 nM for the first, 500 to 5000 nM for the second.

First: N#Cc1ccccc1S(=O)(=O)Nc1cccc2cccnc12 [Compound 249, 2-cyano-N-(quinolin-8-yl)benzene-sulfonamide]
Second: O=S(=O)(Nc1cccc2cccnc12)c1ccccc1C(F)(F)F [Compound 274, N-(quinolin-8-yl)-2-(trifluoromethyl) benzene-sulfonamide]
The IC50 of the first is higher: 200 to 500 nM for the first, under 200 nM for the second.

First: N#Cc1cccc(S(=O)(=O)Nc2cccc3cccnc23)c1 [Compound 250, 3-cyano-N-(quinolin-8-yl)benzene-sulfonamide]
Second: O=S(=O)(Nc1cccc2cccnc12)c1cccc(F)c1 [Compound 283, 3-fluoro-N-(quinolin-8-yl)benzene-sulfonamide]
The IC50 of the first is higher: 500 to 5000 nM for the first, 200 to 500 nM for the second.

First: Cn1ccnc1S(=O)(=O)Nc1cccc2cccnc12 [Compound 251, 1-methyl-N-(quinolin-8-yl)-1H-imidazole-2-sulfonamide]
Second: Cn1nccc1S(=O)(=O)Nc1cccc2cccnc12 [Compound 252, 1-methyl-N-(quinolin-8-yl)-1H-pyrazole-5-sulfonamide]
The IC50 of the first is lower: under 200 nM for the first, 500 to 5000 nM for the second. The first is the more potent here.

`Cc1cc(C)cc(S(=O)(=O)Nc2cccc3cccnc23)c1` [Compound 254, 3,5-dimethyl-N-(quinolin-8-yl)benzene-sulfonamide] and `Cc1ccc(S(=O)(=O)Nc2cccc3cccnc23)cc1C` [Compound 273, 3,4-dimethyl-N-(quinolin-8-yl)benzenesulfon-amide] cannot be ordered by IC50: under 200 nM for the first, under 200 nM for the second.

First: Cn1ccc(S(=O)(=O)Nc2cccc3cccnc23)n1 [Compound 255, 1-methyl-N-(quinolin-8-yl)-1H-pyrazole-3-sulfonamide]
Second: O=S(=O)(Nc1cccc2cccnc12)c1ccco1 [Compound 281, N-(quinolin-8-yl)furan-2-sulfonamide]
The IC50 of the first is lower: 200 to 500 nM for the first, 500 to 5000 nM for the second. The first is the more potent here.

`CN(c1cccc2cccnc12)S(=O)(=O)c1ccccn1` [Compound 256, N-methyl-N-(quinolin-8-yl)pyridine-2-sulfonamide] and `O=S(=O)(Nc1ccc2cccnc2c1)c1ccccn1` [Compound 262, N-(quinolin-7-yl)pyridine-2-sulfonamide] fall in the same range of IC50: 500 to 5000 nM for the first, 500 to 5000 nM for the second.

`O=S(=O)(Nc1cccc2cccnc12)c1ccc(F)cc1F` [Compound 275, 2,4-difluoro-N-(quinolin-8-yl)benzene-sulfonamide] and `O=S(=O)(Nc1cccc2cccnc12)c1ccc(Cl)cc1Cl` [Compound 278, 2,4-dichloro-N-(quinolin-8-yl)benzene-sulfonamide] fall in the same range of IC50: 200 to 500 nM for the first, 200 to 500 nM for the second.

Compared with `O=S(=O)(Nc1cccc2cccnc12)c1cccnc1` [Compound 277, N-(quinolin-8-yl)pyridine-3-sulfonamide], `Cc1ccc(S(=O)(=O)Nc2cccc3cccnc23)cc1` [Compound 284, 4-methyl-N-(quinolin-8-yl)benzene-sulfonamide] is lower in IC50: 500 to 5000 nM for the first, under 200 nM for the second. The second is the more potent here.

First: N#Cc1ccc(S(=O)(=O)Nc2cccc3cccnc23)cc1 [Compound 279, 4-cyano-N-(quinolin-8-yl)benzene-sulfonamide]
Second: O=S(=O)(Nc1cccc2cccnc12)c1ccc(Cl)cc1 [Compound 285, 4-chloro-N-(quinolin-8-yl)benzene-sulfonamide]
The IC50 of the first is higher: 200 to 500 nM for the first, under 200 nM for the second.

`O=S(=O)(Nc1cccc2cccnc12)c1ccc2ccccc2c1` [Compound 282, N-(quinolin-8-yl)naphthalene-2-sulfonamide] showed an IC50 of 200 to 500 nM.
